Source: patent US20110319362A1, “STAT3 LIGANDS AND THERAPEUTIC USES THEREOF” (priority 2008, published 2011)
Like-named read-outs stand apart in the source and are kept apart here.

What was measured:
STAT3 protein = biological target: T1, STAT3 protein (Homo sapiens, UniProt P40763); assay: In vitro competitive STAT3 binding assay (fluorescence polarization)
T1 construct: human STAT3 protein (residues 122-722) fused to His-tag; His-tag
Summary of the method: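 FP competition: His-tagged human STAT3 (122-722), 150 nM, with 5 nM 5-Fam-labelled pYLPQTV phosphopeptide tracer (STT2) and titrated inhibitor, read after 2-3 h. IC50 = concentration displacing 50% of tracer, by nonlinear least-squares fit.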

[1] = system: MDA-MB-231 cancer cell line; assay: Cell growth assay (WST-8); assay type: cell-based; conditions: Homo sapiens, MDA-MB-231, 96 h; WST-8, 4 days; read-out: Inhibition of cell growth IC50, MDA-MB-231 cancer cell line
Summary of the method: (§1)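 Cells (3000–4000/well) grown 4 days with varied compound concentrations, then WST-8 dye added for 1–3 h and absorbance read at 450 nm. Growth inhibition expressed as sample-to-control absorbance ratio.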

[2] = system: MDA-MB-468 cancer cell line; assay: Cell growth assay (WST-8); assay type: cell-based; conditions: Homo sapiens, MDA-MB-468, 96 h; WST-8, 4 days; read-out: Inhibition of cell growth IC50, MDA-MB-468 cancer cell line
Summary of the method: as §1

[3] = FP competitive binding, fluorescently tagged STT2 peptide tracer, read-out: Binding affinities to STAT3 IC50

T1 sequence (P40763 122-722): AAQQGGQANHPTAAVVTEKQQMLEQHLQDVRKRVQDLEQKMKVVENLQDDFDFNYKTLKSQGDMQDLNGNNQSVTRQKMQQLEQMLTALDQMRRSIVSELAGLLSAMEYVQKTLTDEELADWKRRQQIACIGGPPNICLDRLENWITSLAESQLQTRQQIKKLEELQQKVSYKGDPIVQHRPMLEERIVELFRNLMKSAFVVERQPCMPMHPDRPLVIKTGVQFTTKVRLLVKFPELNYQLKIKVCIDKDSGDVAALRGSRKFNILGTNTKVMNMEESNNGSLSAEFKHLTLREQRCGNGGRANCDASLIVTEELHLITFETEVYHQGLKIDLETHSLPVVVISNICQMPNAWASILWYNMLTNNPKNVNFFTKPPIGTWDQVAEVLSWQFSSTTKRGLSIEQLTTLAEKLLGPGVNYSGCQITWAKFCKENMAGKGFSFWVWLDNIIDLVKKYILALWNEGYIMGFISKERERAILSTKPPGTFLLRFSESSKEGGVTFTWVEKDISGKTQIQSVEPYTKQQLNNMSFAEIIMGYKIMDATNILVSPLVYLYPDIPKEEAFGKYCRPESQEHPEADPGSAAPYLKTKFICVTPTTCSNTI

Row | IC50 (STAT3 protein; [3]) | SMILES | IC50 (STAT3 protein) | IC50 [1] | IC50 [2]
1 |  | CNC(=O)[C@H](CCCN)NC(=O)[C@@H]1CC[C@@H]2CCCC[C@H](NC(=O)[C@H](Cc3ccc(OP(=O)(O)O)cc3)NC(=O)OCc3ccccc3)C(=O)N21 [Example 21] | < 10 µM | > 100 µM | > 100 µM
2 |  | O=C(N[C@@H](Cc1ccc(OP(=O)(O)O)cc1)C(=O)N[C@H]1CCCC[C@H]2CC[C@@H](C(=O)N[C@@H](Cc3c[nH]cn3)C(=O)NCc3ccccc3)N2C1=O)OCc1ccccc1 [Example 22] | < 10 µM | > 50 µM | > 100 µM
3 | > 100 µM | NC(=O)CC[C@H](NC(=O)[C@@H]1CC[C@@H]2CCCC[C@H](NC(=O)CCc3ccc(O)c(C(=O)O)c3)C(=O)N21)C(=O)NCc1ccccc1 [Example 24] |  | > 100 µM | > 100 µM
4 | > 100 µM | NC(=O)CC[C@H](NC(=O)[C@@H]1CC[C@@H]2CCCC[C@H](NC(=O)CCc3ccc(CP(=O)(O)O)cc3)C(=O)N21)C(=O)NCc1ccccc1 [Example 25] |  | > 100 µM | > 100 µM
5 |  | NC(=O)CC[C@H](NC(=O)[C@@H]1CC[C@@H]2CCCC[C@H](NC(=O)[C@@H](N)Cc3ccc(CP(=O)(O)O)cc3)C(=O)N21)C(=O)NCc1ccccc1 [Example 29] | < 30 µM | > 100 µM | > 100 µM
6 |  | CC(=O)N[C@@H](Cc1ccc(CP(=O)(O)O)cc1)C(=O)N[C@H]1CCCC[C@H]2CC[C@@H](C(=O)N[C@@H](CCC(N)=O)C(=O)NCc3ccccc3)N2C1=O [Example 30] | < 30 µM | > 100 µM | > 100 µM
7 |  | CCCCCCCCCCCCCCCC(=O)N[C@@H](Cc1ccc(OP(=O)(O)O)cc1)C(=O)NC1CCCC[C@H]2CC[C@@H](C(=O)N[C@@H](CCC(N)=O)C(=O)NCc3ccccc3)N2C1=O (stereo partly drawn) [Example 37] | < 10 µM | < 50 µM | < 50 µM
8 |  | CCCCCCCCCCCCCCCC(=O)N[C@@H](Cc1ccc(OP(=O)(O)O)cc1)C(=O)NC1CCCC[C@H]2CC[C@@H](C(=O)N[C@@H](Cc3c[nH]cn3)C(=O)NCc3ccccc3)N2C1=O (stereo partly drawn) [Example 38] | < 100 µM | < 50 µM | < 60 µM
9 |  | NC(=O)CC[C@H](NC(=O)[C@@H]1CCC2CCCC[C@H](NC(=O)/C=C/c3ccc(OP(=O)(O)O)cc3)C(=O)N21)C(=O)NCc1ccccc1 (stereo partly drawn) [Example 56] | < 1 µM | > 100 µM | > 100 µM
10 |  | NC(=O)CC[C@H](NC(=O)[C@@H]1CCC2CCCC[C@H](NC(=O)c3cc4cc(OP(=O)(O)O)ccc4[nH]3)C(=O)N21)C(=O)NCc1ccccc1 (stereo partly drawn) [Example 57] | < 1 µM | > 100 µM | > 100 µM
11 |  | NC(=O)CC[C@H](NC(=O)[C@@H]1CCC2CCCC[C@H](NC(=O)c3cc4cc(CP(=O)(O)O)ccc4[nH]3)C(=O)N21)C(=O)NCc1ccccc1 (stereo partly drawn) [Example 58] | < 10 µM | > 100 µM | > 100 µM

Row | SMILES | IC50 (STAT3 protein; [3]) | IC50 (STAT3 protein) | IC50 [1] | IC50 [2]
12 | N[C@@H](Cc1ccc(CP(=O)(O)O)cc1)C(=O)N[C@H]1CCCC[C@H]2CC[C@@H](C(=O)N[C@@H](Cc3c[nH]cn3)C(=O)NCc3ccccc3)N2C1=O [Example 26] | > 10 µM |  | > 100 µM | > 100 µM
